{"source": "patent US12138254B2", "about": "“Chronic nightly dosing of lasmiditan for migraine prevention” (Eli Lilly and Company, priority 2018, dated 2024)", "tested_on": "dural plasma protein extravasation", "test": "Trigeminal stimulation-induced dural plasma protein extravasation (PPE) in rats", "assay_type": "in vivo, Sprague-Dawley rats", "excerpt": "Migraine is a painful condition thought to involve neurogenic inflammation of the dural membrane and activation of the trigeminal nervous system. The 5-HT1F receptor is widely expressed in the CNS and peripheral nerves, including the trigeminal ganglia, dorsal root ganglia and trigeminal nucleus caudalis. Plasma protein extravasation (PPE), one component of neurogenic inflammation, can be induced in the dura of rats by electrically stimulating the trigeminal ganglion. Considering the role of the trigeminal nerve in the physiology of migraine, this study is useful to characterize the ability of lasmiditan-hemisuccinate to block plasma protein extravasation in the dura of rats following electrical stimulation of the trigeminal ganglion.\nTo investigate the potential of lasmiditan to modify the dysfunction in the target tissue, the duration of effect following a single oral dose of lasmiditan-hemisuccinate was also determined. Electrical stimulation of the trigeminal ganglion of rats and guinea pigs can be used to induce neurogenic inflammation in the meninges (dura). Briefly, unilateral electrical stimulation of either the left or right trigeminal ganglion using electrodes implanted stereotaxically is used to induce ipsilateral neurogenic inflammation and the increased extravasation of plasma proteins.\nLasmiditan-hemisuccinate is dissolved in sterile water. All doses of lasmiditan are reported as free base equivalent doses, accounting for the weight of the salt. Envigo Sprague-Dawley, Sprague-Dawley male rats (250-350 grams, n=4/group) are fasted overnight prior to dosing. The animals are orally gavaged (2 mL/kg dose volume) with test compound or vehicle one hour prior to stimulation time and returned to their cages with only water available. Approximately 50 minutes post-dosing, the rats are anesthetized with Nembutal (65 mg/kg, ip.) and implanted with stainless steel stimulating electrodes (Rhodes Medical Systems, Inc.) to a depth of 9.2 mm. from the dura. The femoral vein is exposed and fluorescein isothiocyanate-labeled bovine serum albumin (FITC-BSA) (20 mg/kg, iv.), is injected into the femoral vein 2 minutes prior to stimulation. The FITC-BSA functions as a marker for protein extravasation. The left trigeminal ganglion is stimulated for 5 minutes at a current intensity of 1.0 mA (5 Hz, 5 msec pulse duration) with a Model S48 Grass Instrument Stimulator with PSIU6 photoelectric isolation unit (Grass-Telefactor). Five minutes following stimulation, a blood sample is collected by cardiac puncture and the rats are sacrificed by exsanguination with 40 ml of saline. One milliliter of blood is collected and placed in a 1.5 ml EDTA coated tube (Fisher Cat. #540734) on ice. Plasma is separated via centrifugation at 10,000 rpm (941 g) for thirty minutes at 4° C. The top of the skull is removed to collect the brain and dural membranes. The brain and plasma samples are frozen at −80° C. until thawed for compound quantification. The membrane samples are removed from both hemispheres, rinsed with water, and spread flat on microscope slides. The slides are dried for 15 minutes on a slide warmer, then the tissues are cover-slipped with a 70% glycerol/water solution. A fluorescence microscope (Zeiss) equipped with a grating monochromator and a spectrophotometer is used to quantify the amount of FITC-BSA dye in each dural sample. The extravasation induced by electrical stimulation of the trigeminal ganglion is an ipsilateral effect (i.e. occurs only on the side of the dura in which the trigeminal ganglion was stimulated). This allows the other (unstimulated) half of the dura to be used as the control. The ratio of extravasation in the dura from the stimulated side versus the unstimulated side is calculated and reported as the extravasation ratio for each animal. The mean extravasation ratio and standard error of the mean (SEM) are calculated for each treatment group. Controls yield a ratio of approximately 1.8. […]"}
{"substance": "2,4,6-trifluoro-N-[6-(1-methyl-piperidine-4-carbonyl)-pyridin-2-yl]-benzamide hemi-succinate salt [Lasmiditan-hemisuccinate]", "values": [{"measurement": "inhibition of dural plasma protein extravasation vs vehicle", "setting": "1 mg/kg po, 1 hour post-dose", "value": "statistically different vs vehicle"}, {"measurement": "inhibition of dural plasma protein extravasation vs vehicle", "setting": "10 mg/kg po, 1 hour post-dose", "value": "statistically different vs vehicle"}, {"measurement": "inhibition of dural plasma protein extravasation", "setting": "one hour following oral administration to rats, 0.1-10 mg/kg", "value": "dose-dependently inhibits"}, {"measurement": "inhibition of dural plasma protein extravasation vs vehicle", "setting": "single 10 mg/kg po, 24 hours post-dose", "value": "significantly blocks"}, {"measurement": "inhibition of dural plasma protein extravasation vs vehicle", "setting": "single 10 mg/kg po, 48 hours post-dose", "value": "not effective"}]}
